The results in this text go back to patent publication US5763577A, “Substituted tetra- and pentapeptide inhibitors of protein: farnesyl transferase” (Warner-Lambert Company, priority 1996, dated 1998).

This experiment deals with T1, rat brain farnesyl protein transferase (Rattus norvegicus, UniProt Q02293+Q04631).
T1 construct: 40-fold purified rat brain farnesyl protein transferase; from tissue; host or cells: rat brain
The experiment in a line: PFT inhibitory activity assay (3H-farnesyl pyrophosphate, biotinyl peptide, streptavidin beads). The experiment is classed as biochemical. The conditions noted are these: 30 mM potassium phosphate buffer pH 7.4; FPP 0.12 μM; (biotinyl)-Ahe-Tyr-Lys-Cys-Val-Ile-Met 0.1 μM; 37° C, 30 minutes. On the procedure: The PFT inhibitory activity of compounds of Formula I was assayed in 30 mM potassium phosphate buffer, pH 7.4, containing 7 mM DTT, 1.2 MM MgCl2, 0.1 mM leupeptin, 0.1 mM pepstatin, and 0.2 mM phenylmethylsulfonyl fluoride. Assays were performed in 96 well plates (Wallec) and employed solutions composed of varying concentrations of a compound of Formula I in 100% DMSO. Upon addition of both substrates, radiolabeled farnesyl pyrophosphate ([1-^3 H], specific activity 15-30 Ci/mmol, final concentration 0.12 μM) and (biotinyl)-Ahe-Tyr-Lys-Cys-Val-Ile-Met peptide (final concentration 0.1 μM), the Seq ID NO:59 enzyme reaction was started by addition of 40-fold purified rat brain farnesyl protein transferase. After incubation at 37° C for 30 minutes, the reaction was terminated by diluting the reaction 2.5-fold with a stop buffer containing 1.5M magnesium acetate, 0.2M H3 PO4, 0.5% BSA, and strepavidin beads (Amersham) at a concentration of 1.3 mg/mL. After allowing the plate to settle for 30 minutes at room temperature, radioactivity was quantitated on a microBeta counter (model 1450, Wallec).

Molecules are shown by their SMILES. Where a name gives a salt, the structure may show the parent alone. Non-standard residues stand in square brackets, D forms with d. Residues, ends and D or L forms follow the SMILES beside them. *: point of attachment. Cbz = O=C(OCc1ccccc1)*; Bn = c1ccc(C*)cc1

Usually IC50 stands for the concentration at which inhibition is half-maximal. Low readings indicate inhibition by little substance, high ones a need for much substance.

`C[C@@H](NC(=O)[C@H](COCc1ccccc1)NC(=O)[C@H](Cc1ccc(OCc2ccccc2)cc1)NC(=O)[C@H](Cc1c[nH]cn1)NC(=O)OCc1ccccc1)C(=O)O` [Cbz--His--Tyr(OBn)--Ser(OBn)--DAla--OH, N-[N-[N-[N-[(Phenylmethoxy)carbonyl]-L-histidyl]-O-(phenylmethyl)-L-tyrosyl]-O-(phenylmethyl)-L-seryl]-D-alanine, monohydrochloride] (Cbz-HY(Bn)S(Bn)[dA]-OH) gave an IC50 of 404 nM. As to `COC(=O)[C@@H](C)NC(=O)[C@H](COCc1ccccc1)NC(=O)[C@H](Cc1ccc(OCc2ccccc2)cc1)NC(=O)[C@H](Cc1c[nH]cn1)NC(=O)OCc1ccccc1` [Cbz--His--Tyr(OBn)--Ser(OBn)--DAla--OM2, N-[N-[N-[N-[(Phenylmethoxy)carbonyl]-L-histidyl]-O-(phenylmethyl)-L-tyrosyl]-O-(phenylmethyl)-L-seryl]-D-alanine, methyl ester] (Cbz-HY(Bn)S(Bn)[dA]-OMe), half-maximal inhibition (IC50) required 142 nM.
